Measured values reported in ChEMBL document CHEMBL1201862, “PubChem BioAssay data set” (2004).
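Values below derive from 48-hour exposures of cells grown in 96-well plates, with endpoints linearly interpolated between the two concentrations bracketing the appropriate inhibition level. GI50: concentration for 50% inhibition of growth.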 Active and inactive are the calls of the source. Rule as the data show it: active = GI50 up to about 1.1 µM and inactive = higher.

Key:
Experiment in all cases: NCI tumour cell line growth inhibition, 48 h
SK-MEL-28 = tested on: SK-MEL-28
SR = tested on: SR
MOLT-4 = tested on: MOLT-4
UO-31 = tested on: UO-31
OVCAR-3 = tested on: OVCAR-3
786-0 = tested on: 786-0
M14 = tested on: M14
UACC-257 = tested on: UACC-257
SK-OV-3 = tested on: SK-OV-3
U-251 = tested on: U-251
HT-29 = tested on: HT-29
DU-145 = tested on: DU-145
TK-10 = tested on: TK-10
UACC-62 = tested on: UACC-62
HOP-92 = tested on: HOP-92
SF-539 = tested on: SF-539
HCC 2998 = tested on: HCC 2998

Compound: CCCCN1CSC(=S)N(Cc2ccccc2)C1
- GI50 (SK-MEL-28): > 100 µM (inactive)
- GI50 (SR): 31.7 µM (inactive)
- GI50 (MOLT-4): 25.6 µM (inactive)
- GI50 (UO-31): > 100 µM (inactive)
- GI50 (OVCAR-3): 33.7 µM (inactive)
- GI50 (786-0): 34.4 µM (inactive)
- GI50 (M14): > 82.8 µM (inactive)
- GI50 (UACC-257): 20.9 µM (inactive)
- GI50 (SK-OV-3): > 100 µM (inactive)
- GI50 (U-251): 44.6 µM (inactive)
- GI50 (HT-29): 58.6 µM (inactive)
- GI50 (DU-145): 69.3 µM (inactive)
- GI50 (TK-10): 28.4 µM (inactive)
- GI50 (UACC-62): 41.2 µM (inactive)
- GI50 (HOP-92): > 75.9 µM (inactive)
- GI50 (SF-539): > 100 µM (inactive)

Compound: NC(=O)NNCc1ccccc1
- GI50 (MOLT-4): > 100 µM (inactive)
- GI50 (UO-31): > 100 µM (inactive)
- GI50 (OVCAR-3): > 100 µM (inactive)
- GI50 (786-0): > 100 µM (inactive)
- GI50 (M14): > 100 µM (inactive)
- GI50 (UACC-257): > 100 µM (inactive)
- GI50 (SK-OV-3): > 100 µM (inactive)
- GI50 (U-251): > 100 µM (inactive)
- GI50 (HCC 2998): > 100 µM (inactive)
- GI50 (HT-29): > 100 µM (inactive)
- GI50 (DU-145): > 100 µM (inactive)
- GI50 (TK-10): > 100 µM (inactive)
- GI50 (UACC-62): > 100 µM (inactive)
- GI50 (HOP-92): 51.5 µM (inactive)
- GI50 (SF-539): > 100 µM (inactive)

Compound: Brc1cccc(Nc2ncnc3sc4c(c23)CCC(Nc2cccc(Br)c2)C4)c1 (centres undefined)
- GI50 (SK-MEL-28): > 100 µM (inactive)
- GI50 (MOLT-4): > 100 µM (inactive)
- GI50 (UO-31): > 100 µM (inactive)
- GI50 (OVCAR-3): > 100 µM (inactive)
- GI50 (786-0): > 100 µM (inactive)
- GI50 (M14): > 100 µM (inactive)
- GI50 (UACC-257): > 100 µM (inactive)
- GI50 (SK-OV-3): > 100 µM (inactive)
- GI50 (U-251): > 100 µM (inactive)
- GI50 (HCC 2998): > 100 µM (inactive)
- GI50 (HT-29): > 100 µM (inactive)
- GI50 (DU-145): > 100 µM (inactive)
- GI50 (TK-10): > 100 µM (inactive)
- GI50 (UACC-62): > 100 µM (inactive)
- GI50 (HOP-92): 26.2 µM (inactive)

Compound: CCN1C(=O)c2cc(OC)c(OC)cc2C(=O)C12OC(=O)c1cc3c(cc12)OCO3 (centres undefined)
- GI50 (SK-MEL-28): > 100 µM (inactive)
- GI50 (SR): 51.4 µM (inactive)
- GI50 (MOLT-4): > 100 µM (inactive)
- GI50 (UO-31): > 100 µM (inactive)
- GI50 (OVCAR-3): 63.5 µM (inactive)
- GI50 (786-0): 22.4 µM (inactive)
- GI50 (M14): 97.3 µM (inactive)
- GI50 (UACC-257): > 100 µM (inactive)
- GI50 (U-251): 43 µM (inactive)
- GI50 (HCC 2998): 54.7 µM (inactive)
- GI50 (HT-29): 87.3 µM (inactive)
- GI50 (DU-145): 31.3 µM (inactive)
- GI50 (TK-10): 75.7 µM (inactive)
- GI50 (UACC-62): 80.5 µM (inactive)
- GI50 (HOP-92): 55.3 µM (inactive)
- GI50 (SF-539): 53.2 µM (inactive)

Compound: Cc1nc2[nH]ncn2c(=O)c1CCO
- GI50 (SK-MEL-28): 2.56 µM (inactive)
- GI50 (SR): > 10 µM (inactive)
- GI50 (MOLT-4): > 10 µM (inactive)
- GI50 (UO-31): > 10 µM (inactive)
- GI50 (M14): > 10 µM (inactive)
- GI50 (SK-OV-3): > 10 µM (inactive)
- GI50 (U-251): > 10 µM (inactive)
- GI50 (HCC 2998): > 10 µM (inactive)
- GI50 (HT-29): > 10 µM (inactive)
- GI50 (DU-145): > 10 µM (inactive)
- GI50 (TK-10): > 10 µM (inactive)
- GI50 (UACC-62): > 10 µM (inactive)
- GI50 (SF-539): > 10 µM (inactive)

Compound: CN(NC(=O)c1cccs1)C1=NCCCN1
- GI50 (SK-MEL-28): > 100 µM (inactive)
- GI50 (SR): > 100 µM (inactive)
- GI50 (MOLT-4): > 100 µM (inactive)
- GI50 (UO-31): > 100 µM (inactive)
- GI50 (OVCAR-3): > 100 µM (inactive)
- GI50 (786-0): > 100 µM (inactive)
- GI50 (M14): > 100 µM (inactive)
- GI50 (UACC-257): > 100 µM (inactive)
- GI50 (SK-OV-3): > 100 µM (inactive)
- GI50 (U-251): > 100 µM (inactive)
- GI50 (HCC 2998): > 100 µM (inactive)
- GI50 (HT-29): > 100 µM (inactive)
- GI50 (TK-10): > 100 µM (inactive)
- GI50 (UACC-62): > 100 µM (inactive)
- GI50 (HOP-92): > 100 µM (inactive)
- GI50 (SF-539): > 100 µM (inactive)

Compound: CCOC(=O)/C(=C/c1cn(C(C)=O)c2ccccc12)P(=O)(OC)OC
- GI50 (SK-MEL-28): 37.2 µM (inactive)
- GI50 (SR): 24.8 µM (inactive)
- GI50 (MOLT-4): 25.4 µM (inactive)
- GI50 (OVCAR-3): 20.3 µM (inactive)
- GI50 (M14): 52.4 µM (inactive)
- GI50 (UACC-257): 19.1 µM (inactive)
- GI50 (SK-OV-3): 25.1 µM (inactive)
- GI50 (U-251): 30.4 µM (inactive)
- GI50 (HCC 2998): > 10 µM (inactive)
- GI50 (HT-29): 40.5 µM (inactive)
- GI50 (DU-145): 22.2 µM (inactive)
- GI50 (TK-10): > 100 µM (inactive)
- GI50 (HOP-92): 31.1 µM (inactive)

Compound: O=C(O)/C(=C\c1ccncc1)c1cccc2ccccc12
- GI50 (SK-MEL-28): > 100 µM (inactive)
- GI50 (SR): > 100 µM (inactive)
- GI50 (MOLT-4): > 100 µM (inactive)
- GI50 (OVCAR-3): > 100 µM (inactive)
- GI50 (786-0): > 100 µM (inactive)
- GI50 (M14): > 100 µM (inactive)
- GI50 (UACC-257): 0.145 µM (active)
- GI50 (SK-OV-3): > 100 µM (inactive)
- GI50 (U-251): > 100 µM (inactive)
- GI50 (HT-29): > 100 µM (inactive)
- GI50 (DU-145): > 100 µM (inactive)
- GI50 (TK-10): > 100 µM (inactive)
- GI50 (HOP-92): > 100 µM (inactive)
- GI50 (SF-539): > 100 µM (inactive)

Compound: O=c1[nH]c(=O)n(C/C=C/CBr)nc1Br
- GI50 (SK-MEL-28): 14.9 µM (inactive)
- GI50 (SR): 3.08 µM (inactive)
- GI50 (MOLT-4): 16 µM (inactive)
- GI50 (UO-31): 18.5 µM (inactive)
- GI50 (OVCAR-3): 11.6 µM (inactive)
- GI50 (786-0): 12.6 µM (inactive)
- GI50 (M14): 13.9 µM (inactive)
- GI50 (UACC-257): 12.3 µM (inactive)
- GI50 (U-251): 9.4 µM (inactive)
- GI50 (HCC 2998): 14.9 µM (inactive)
- GI50 (HT-29): 12.9 µM (inactive)
- GI50 (DU-145): > 100 µM (inactive)
- GI50 (TK-10): 17.7 µM (inactive)
- GI50 (UACC-62): 13.8 µM (inactive)
- GI50 (HOP-92): 13.4 µM (inactive)
- GI50 (SF-539): 14 µM (inactive)
